{"source": "patent US20120197004A1", "about": "“NOVEL ANTI-MICROBIAL PEPTIDOMIMETIC COMPOUNDS AND METHODS TO CALCULATE ANTI-MICROBIAL ACTIVITY” (priority 2006, published 2012)", "key": {"[1]": {"system": "Mycobacterium ranae (ATCC 110)", "settings": "ATCC 110"}, "[2]": {"system": "Salmonella typhimurium (ATCC 13311)"}, "[3]": {"system": "Staphylococcus aureus Methicillin/Gentamicin/Tetracycline Resistant (ATCC 33592)", "settings": "in vitro MIC; tested at 100, 30, 10, 3, 1, 0.3 and 0.1 μM in 1% DMSO"}}, "note": "Where a SMILES comes first, the peptide text is derived from it. [ ]: non-standard residue; d: D form. Phe(4-NO2) = N[C@@H](Cc1ccc([N+](=O)[O-])cc1)C(=O)O; Oic = O=C(O)[C@@H]1C[C@@H]2CCCC[C@@H]2N1; Phe(4-Cl) = N[C@@H](Cc1ccc(Cl)cc1)C(=O)O; Phe(4-F) = N[C@@H](Cc1ccc(F)cc1)C(=O)O; Tic = O=C(O)[C@@H]1Cc2ccccc2CN1; Dap = NC[C@H](N)C(=O)O; βAla = NCCC(=O)O", "data": [{"smiles": "CC(=O)NCCC(=O)N[C@@H](Cc1ccc(F)cc1)C(=O)N1Cc2ccccc2C[C@H]1C(=O)N1[C@H](C(=O)NCCC(=O)N[C@@H](CCCCN)C(=O)N2Cc3ccccc3C[C@H]2C(=O)N2[C@H](C(=O)NCCC(=O)N[C@@H](Cc3ccc(F)cc3)C(=O)N3Cc4ccccc4C[C@H]3C(=O)N3[C@H](C(=O)NCCC(=O)N[C@@H](CCCCN)C(=O)N4Cc5ccccc5C[C@H]4C(=O)N[C@@H](CN)C(=O)N[C@@H](CN)C(=O)N[C@@H](CN)C(=O)N[C@@H](CN)C(N)=O)C[C@@H]4CCCC[C@@H]43)C[C@@H]3CCCC[C@@H]32)C[C@@H]2CCCC[C@@H]21", "note": "[FKAB-1Gv, Ac-βAla-Fpa-Tic-Oic-βAla-K-Tic-Oic-βAla-Fpa-Tic-Oic-βAla-K-Tic-Dpr-Dpr-Dpr-Dpr-CONH2] (Ac-[βAla][Phe(4-F)][Tic][Oic][βAla]K[Tic][Oic][βAla][Phe(4-F)][Tic][Oic][βAla]K[Tic][Dap][Dap][Dap][Dap]-NH2)", "values": [{"measurement": "Minimum Inhibitory Concentration Mycobacterium ranae", "setting": "[1]", "value": 30, "unit": "µM"}]}, {"smiles": "CC(=O)NCC(=O)N[C@@H](Cc1ccccc1)C(=O)N1Cc2ccccc2C[C@H]1C(=O)N1Cc2ccccc2C[C@H]1C(=O)NCC(=O)N[C@@H](CCCCN)C(=O)N1Cc2ccccc2C[C@H]1C(=O)N1Cc2ccccc2C[C@H]1C(=O)NCC(=O)N[C@@H](Cc1ccccc1)C(=O)N1Cc2ccccc2C[C@H]1C(=O)N1Cc2ccccc2C[C@H]1C(=O)NCC(=O)N[C@@H](CCCCN)C(=O)N1Cc2ccccc2C[C@H]1C(=O)N[C@@H](CCCCN)C(=O)N[C@@H](CCCCN)C(=O)N[C@@H](CCCCN)C(=O)N[C@@H](CCCCN)C(N)=O", "note": "[FKAB-1Gg2, Ac-GF-Tic-Tic-GK-Tic-Tic-GF-Tic-Tic-GK-Tic-KKKK-CONH2] (Ac-GF[Tic][Tic]GK[Tic][Tic]GF[Tic][Tic]GK[Tic]KKKK-NH2)", "values": [{"measurement": "Minimum Inhibitory Concentration Mycobacterium ranae", "setting": "[1]", "value": 10, "unit": "µM"}]}, {"smiles": "CC(=O)NCC(=O)N[C@@H](Cc1ccccc1)C(=O)N1[C@H](C(=O)N2Cc3ccccc3C[C@H]2C(=O)NCC(=O)N[C@@H](CCCCN)C(=O)N2[C@H](C(=O)N3Cc4ccccc4C[C@H]3C(=O)NCC(=O)N[C@@H](Cc3ccccc3)C(=O)N3[C@H](C(=O)N4Cc5ccccc5C[C@H]4C(=O)NCC(=O)N[C@@H](CCCCN)C(=O)N4Cc5ccccc5C[C@H]4C(=O)N[C@@H](CCCCN)C(=O)N[C@@H](CCCCN)C(=O)N[C@@H](CCCCN)C(=O)N[C@@H](CCCCN)C(N)=O)C[C@@H]4CCCC[C@@H]43)C[C@@H]3CCCC[C@@H]32)C[C@@H]2CCCC[C@@H]21", "note": "[FKABB-1G1, Ac-GF-Oic-Tic-GK-Oic-Tic-GF-Oic-Tic-GK-Tic-KKKK-CONH2] (Ac-GF[Oic][Tic]GK[Oic][Tic]GF[Oic][Tic]GK[Tic]KKKK-NH2)", "values": [{"measurement": "Minimum Inhibitory Concentration Mycobacterium ranae", "setting": "[1]", "value": 30, "unit": "µM"}]}, {"smiles": "CC(=O)NCC(=O)N[C@H](Cc1ccccc1)C(=O)N1Cc2ccccc2C[C@H]1C(=O)N1[C@H](C(=O)NCC(=O)N[C@@H](CCCCN)C(=O)N2Cc3ccccc3C[C@H]2C(=O)N2[C@H](C(=O)NCC(=O)N[C@H](Cc3ccccc3)C(=O)N3Cc4ccccc4C[C@H]3C(=O)N3[C@H](C(=O)NCC(=O)N[C@@H](CCCCN)C(=O)N4Cc5ccccc5C[C@H]4C(=O)N[C@@H](CCCCN)C(=O)N[C@@H](CCCCN)C(=O)N[C@@H](CCCCN)C(=O)N[C@@H](CCCCN)C(N)=O)C[C@@H]4CCCC[C@@H]43)C[C@@H]3CCCC[C@@H]32)C[C@@H]2CCCC[C@@H]21", "note": "[FKAB-1G2, Ac-G-dF-Tic-Oic-GK-Tic-Oic-G dF-Tic-Oic-GK-Tic-KKKK-CONH2] (Ac-G[dF][Tic][Oic]GK[Tic][Oic]G[dF][Tic][Oic]GK[Tic]KKKK-NH2)", "values": [{"measurement": "Minimum Inhibitory Concentration Mycobacterium ranae", "setting": "[1]", "value": 10, "unit": "µM"}]}, {"smiles": "CC(=O)NCC(=O)N[C@@H](Cc1ccc([N+](=O)[O-])cc1)C(=O)N1Cc2ccccc2C[C@H]1C(=O)N1[C@H](C(=O)NCC(=O)N[C@@H](CCCCN)C(=O)N2Cc3ccccc3C[C@H]2C(=O)N2[C@H](C(=O)NCC(=O)N[C@@H](Cc3ccc([N+](=O)[O-])cc3)C(=O)N3Cc4ccccc4C[C@H]3C(=O)N3[C@H](C(=O)NCC(=O)N[C@@H](CCCCN)C(=O)N4Cc5ccccc5C[C@H]4C(=O)N[C@@H](CCCCN)C(=O)N[C@@H](CCCCN)C(=O)N[C@@H](CCCCN)C(=O)N[C@@H](CCCCN)C(N)=O)C[C@@H]4CCCC[C@@H]43)C[C@@H]3CCCC[C@@H]32)C[C@@H]2CCCC[C@@H]21", "note": "[FKAB-1Go2, Ac-G-Nph-Tic-Oic-GK-Tic-Oic-G-Nph-Tic-Oic-GK-Tic-KKKK-CONH2] (Ac-G[Phe(4-NO2)][Tic][Oic]GK[Tic][Oic]G[Phe(4-NO2)][Tic][Oic]GK[Tic]KKKK-NH2)", "values": [{"measurement": "Minimum Inhibitory Concentration Mycobacterium ranae", "setting": "[1]", "value": 10, "unit": "µM"}]}, {"smiles": "CC(=O)NCC(=O)N[C@@H](Cc1ccc(Cl)cc1)C(=O)N1Cc2ccccc2C[C@H]1C(=O)N1[C@H](C(=O)NCC(=O)N[C@@H](CCCCN)C(=O)N2Cc3ccccc3C[C@H]2C(=O)N2[C@H](C(=O)NCC(=O)N[C@@H](Cc3ccc(Cl)cc3)C(=O)N3Cc4ccccc4C[C@H]3C(=O)N3[C@H](C(=O)NCC(=O)N[C@@H](CCCCN)C(=O)N4Cc5ccccc5C[C@H]4C(=O)N[C@@H](CCCCN)C(=O)N[C@@H](CCCCN)C(=O)N[C@@H](CCCCN)C(=O)N[C@@H](CCCCN)C(N)=O)C[C@@H]4CCCC[C@@H]43)C[C@@H]3CCCC[C@@H]32)C[C@@H]2CCCC[C@@H]21", "note": "[FKAB-1Go1, Ac-G-Cph-Tic-Oic-GK-Tic-Oic-G-Cph-Tic-Oic-GK-Tic-KKKK-CONH2] (Ac-G[Phe(4-Cl)][Tic][Oic]GK[Tic][Oic]G[Phe(4-Cl)][Tic][Oic]GK[Tic]KKKK-NH2)", "values": [{"measurement": "Minimum Inhibitory Concentration Salmonella typhimurium", "setting": "[2]; in vitro MIC, tested at 100, 30, 10, 3, 1, 0.3 and 0.1 μM in 1% DMSO", "value": "not active"}, {"measurement": "Minimum Inhibitory Concentration Mycobacterium ranae", "setting": "[1]", "value": 10, "unit": "µM"}]}, {"smiles": "CC(=O)N[C@@H](CCCCN)C(=O)N[C@@H](CCCCN)C(=O)N[C@@H](CCCCN)C(=O)N[C@@H](CCCCN)C(=O)NCC(=O)N[C@@H](Cc1ccccc1)C(=O)N1Cc2ccccc2C[C@H]1C(=O)N1[C@H](C(=O)NCC(=O)N[C@@H](CCCCN)C(=O)N2Cc3ccccc3C[C@H]2C(=O)N2[C@H](C(=O)NCC(=O)N[C@@H](Cc3ccccc3)C(=O)N3Cc4ccccc4C[C@H]3C(=O)N3[C@H](C(=O)NCC(=O)N[C@@H](CCCCN)C(=O)N4Cc5ccccc5C[C@H]4C(N)=O)C[C@@H]4CCCC[C@@H]43)C[C@@H]3CCCC[C@@H]32)C[C@@H]2CCCC[C@@H]21", "note": "[FBAB-1Gq, Ac-KKKK-GF-Tic-Oic-GK-Tic-Oic-GF-Tic-Oic-GK-Tic-CONH2] (Ac-KKKKGF[Tic][Oic]GK[Tic][Oic]GF[Tic][Oic]GK[Tic]-NH2)", "values": [{"measurement": "Minimum Inhibitory Concentration Mycobacterium ranae", "setting": "[1]", "value": 3, "unit": "µM"}]}, {"smiles": "CC(=O)NCCC(=O)N[C@@H](Cc1ccc(F)cc1)C(=O)N1Cc2ccccc2C[C@H]1C(=O)N1[C@H](C(=O)NCCC(=O)N[C@@H](CN)C(=O)N2Cc3ccccc3C[C@H]2C(=O)N2[C@H](C(=O)NCCC(=O)N[C@@H](Cc3ccc(F)cc3)C(=O)N3Cc4ccccc4C[C@H]3C(=O)N3[C@H](C(=O)NCCC(=O)N[C@@H](CN)C(=O)N4Cc5ccccc5C[C@H]4C(=O)N[C@@H](CN)C(=O)N[C@@H](CN)C(=O)N[C@@H](CN)C(=O)N[C@@H](CN)C(N)=O)C[C@@H]4CCCC[C@@H]43)C[C@@H]3CCCC[C@@H]32)C[C@@H]2CCCC[C@@H]21", "note": "[FBAB-1Gw, Ac-βAla-Fpa-Tic-Oic-βAla-Dpr-Tic-Oic-βAla-Fpa-Tic-Oic-βAla-Dpr-Tic-Dpr-Dpr-Dpr-Dpr-CONH2] (Ac-[βAla][Phe(4-F)][Tic][Oic][βAla][Dap][Tic][Oic][βAla][Phe(4-F)][Tic][Oic][βAla][Dap][Tic][Dap][Dap][Dap][Dap]-NH2)", "values": [{"measurement": "selectivity for Salmonella typhimurium over Mycobacterium ranae", "setting": "[2]; in vitro", "value": 33, "unit": "fold"}, {"measurement": "selectivity for Salmonella typhimurium over Staphylococcus aureus ME/GM/TC resistant", "setting": "[2]; in vitro", "value": 10, "unit": "fold"}, {"measurement": "Minimum Inhibitory Concentration Mycobacterium ranae", "setting": "[1]", "value": 100, "unit": "µM"}]}, {"smiles": "CC[C@H](C)[C@H](NC(=O)CN)C(=O)NCC(=O)N[C@@H](CCCCN)C(=O)N[C@@H](Cc1ccccc1)C(=O)N[C@@H](CC(C)C)C(=O)N[C@@H](Cc1c[nH]cn1)C(=O)N[C@@H](CO)C(=O)N[C@@H](C)C(=O)NCC(=O)N[C@@H](CCCCN)C(=O)N[C@@H](Cc1ccccc1)C(=O)NCC(=O)N[C@@H](CCCCN)C(=O)N[C@@H](C)C(=O)N[C@@H](Cc1ccccc1)C(=O)N[C@H](C(=O)NCC(=O)N[C@@H](CCC(=O)O)C(=O)N[C@H](C(=O)N[C@@H](CCSC)C(=O)N[C@@H](CCCCN)C(=O)N[C@@H](CO)C(=O)O)[C@@H](C)CC)C(C)C", "note": "[Magainin I, magainin I, reference compound] (H-GIGKFLHSAGKFGKAFVGEIMKS-OH; N-terminus and C-terminus assumed)", "values": [{"measurement": "Minimum Inhibitory Concentration Staphylococcus aureus ME/GM/TC resistant", "setting": "[3]", "value": "> 100", "unit": "µM"}]}, {"smiles": "CC(=O)NCC(=O)N[C@@H](Cc1ccccc1)C(=O)N1Cc2ccccc2C[C@H]1C(=O)N1[C@H](C(=O)NCC(=O)N[C@@H](CN)C(=O)N2Cc3ccccc3C[C@H]2C(=O)N2[C@H](C(=O)NCC(=O)N[C@@H](Cc3ccccc3)C(=O)N3Cc4ccccc4C[C@H]3C(=O)N3[C@H](C(=O)NCC(=O)N[C@@H](CN)C(=O)N4Cc5ccccc5C[C@H]4C(=O)N[C@@H](CN)C(=O)N[C@@H](CN)C(=O)N[C@@H](CN)C(=O)N[C@@H](CN)C(N)=O)C[C@@H]4CCCC[C@@H]43)C[C@@H]3CCCC[C@@H]32)C[C@@H]2CCCC[C@@H]21", "note": "[FKAB-1Gs, Ac-GF-Tic-Oic-G-Dpr-Tic-Oic-GF-Tic-Oic-G-Dpr-Tic-Dpr-DprDpr-Dpr-CONH2] (Ac-GF[Tic][Oic]G[Dap][Tic][Oic]GF[Tic][Oic]G[Dap][Tic][Dap][Dap][Dap][Dap]-NH2)", "values": [{"measurement": "Minimum Inhibitory Concentration Staphylococcus aureus ME/GM/TC resistant", "setting": "[3]", "value": 10, "unit": "μm μM"}, {"measurement": "Minimum Inhibitory Concentration Mycobacterium ranae", "setting": "[1]", "value": 100, "unit": "µM"}]}, {"smiles": "CC(=O)NCC(=O)N[C@@H](Cc1ccccc1)C(=O)N1Cc2ccccc2C[C@H]1C(=O)N1[C@H](C(=O)NCC(=O)N[C@H](CCCCN)C(=O)N2Cc3ccccc3C[C@H]2C(=O)N2[C@H](C(=O)NCC(=O)N[C@@H](Cc3ccccc3)C(=O)N3Cc4ccccc4C[C@H]3C(=O)N3[C@H](C(=O)NCC(=O)N[C@H](CCCCN)C(=O)N4Cc5ccccc5C[C@H]4C(=O)N[C@@H](CCCCN)C(=O)N[C@@H](CCCCN)C(=O)N[C@@H](CCCCN)C(=O)N[C@@H](CCCCN)C(N)=O)C[C@@H]4CCCC[C@@H]43)C[C@@H]3CCCC[C@@H]32)C[C@@H]2CCCC[C@@H]21", "note": "[FKAB-1G3, Ac-GF-Tic-Oic-G-dK-Tic-Oic-GF-Tic-Oic-G-dK-Tic-KKKK-CONH2] (Ac-GF[Tic][Oic]G[dK][Tic][Oic]GF[Tic][Oic]G[dK][Tic]KKKK-NH2)", "values": [{"measurement": "Minimum Inhibitory Concentration Mycobacterium ranae", "setting": "[1]", "value": 10, "unit": "µM"}]}]}
